Experimental data published in US20120157401A1, “METHODS FOR TREATING NEUROFIBROMATOSIS” (PTC Therapeutics, Inc., priority 2009, published 2012).

test system: hypoxia-inducible endogenous VEGF expression; assay: Hypoxia-inducible endogenous VEGF expression ELISA in HeLa cells, dose-response EC50 (Table 3); type: cell-based, human; conditions: Homo sapiens, HeLa, read-out: ELISA EC50 μM
Method: The ability of the Compounds to modulate hypoxia-inducible endogenous VEGF expression may be analyzed as follows. VEGF protein levels may be monitored by an ELISA assay (R&D Systems). Briefly, HeLa cells may be cultured for 24-48 hours under hypoxic conditions (1% O2, 5% CO2, balanced with nitrogen) in the presence or absence of a Compound. The conditioned media may then be assayed by ELISA, and the concentration of VEGF calculated from the standard ELISA curve of each assay.
A dose-response analysis may be performed using the ELISA assay and conditions described above. The conditions for the dose-response ELISA are analogous to those described above. A series of, e.g., seven different concentrations may be analyzed. In parallel, a dose-response cytotoxicity assay may be performed using Cell Titer Glo (Promega) under the same conditions as the ELISA to ensure that the inhibition of VEGF expression was not due to the cytotoxicity.

Compound	EC50 [µM]
COc1ccc(OC(=O)N2CCc3c([nH]c4ccc(Cl)cc34)C2c2ccc(OCCCN3CCOCC3)c(OC)c2)cc1 (stereo not drawn) [Compound 1131]	0.008 to 0.04
O=C(Oc1ccc(Cl)cc1)N1CCc2c([nH]c3ccc(Cl)cc23)C1c1ccc(OCCCN2CCC(CO)C2)cc1 (stereo not drawn) [Compound 1098]	0.008 to 0.04
CC(=O)N1CCN(CC(O)COc2ccc(C3c4[nH]c5ccc(Cl)cc5c4CCN3C(=O)Oc3ccc(Cl)cc3)cc2)CC1 (stereo not drawn) [Compound 415]	< 0.008
CN1CCN(CCCCCCOc2ccc(C3c4[nH]c5ccc(Cl)cc5c4CCN3C(=O)Oc3ccc(F)cc3)cc2)CC1 (stereo not drawn) [Compound 778]	< 0.008
CN(C)CCCOc1ccc(C2c3[nH]c4ccc(Cl)cc4c3CCN2C(=O)Oc2ccc(Cl)cc2)cc1 (stereo not drawn) [Compound 479]	0.04 to 0.2
CN1CCN(Cc2cnc(Oc3ccc([C@H]4c5[nH]c6ccc(Cl)cc6c5CCN4C(=O)Oc4ccc(Cl)cc4)cc3)s2)CC1 [Compound 1661]	< 0.008
O=C(Oc1ccc(Cl)cc1)N1CCc2c([nH]c3ccc(Cl)cc23)C1c1ccc(OCCCCCCN2CCCC2)cc1 (stereo not drawn) [Compound 783]	< 0.008
O=C(Oc1ccc(F)cc1)N1CCc2c([nH]c3ccc(Cl)cc23)C1c1ccc(OCCCN2CCOCC2)cc1 (stereo not drawn) [Compound 989]	< 0.008
O=C1CN(CCCOc2ccc(C3c4[nH]c5ccc(Cl)cc5c4CCN3C(=O)Oc3ccc(Cl)cc3)cc2)C(=O)N1 (stereo not drawn) [Compound 1672]	< 0.008
CCCN(CCC)CCCOc1ccc([C@H]2c3[nH]c4ccc(Cl)cc4c3CCN2C(=O)Oc2ccc(Cl)cc2)cc1 [Compound 1234]	< 0.008
O=C(Oc1ccc(Cl)cc1)N1CCc2c([nH]c3ccc(Cl)cc23)[C@@H]1c1ccc(OCCCNC(CO)(CO)CO)cc1 [Compound 1255]	0.04 to 0.2
CCN1CCN(C(=O)COc2ccc(C3c4[nH]c5ccc(Cl)cc5c4CCN3C(=O)Oc3ccc(OC)cc3)cc2)CC1 (stereo not drawn) [Compound 1028]	0.04 to 0.2

same assay, conditions: Homo sapiens; HeLa cells, hypoxic conditions (1% O2), 24-48 hours, VEGF in conditioned media; read-out: ELISA EC50

Compound	EC50 [µM]
CC(=O)NCC(O)COc1ccc(C2c3[nH]c4ccc(Cl)cc4c3CCN2C(=O)Oc2ccc(Cl)cc2)cc1 (stereo not drawn) [Compound 847]	0.008 to 0.04
COc1cc(C2c3[nH]c4ccc(Cl)cc4c3CCN2C(=O)Oc2ccccc2)ccc1OCCCn1cncn1 (stereo not drawn) [Compound 1150]	0.008 to 0.04
Cc1ccc(OC(=O)N2CCc3c([nH]c4ccc(Cl)cc34)[C@@H]2c2ccc(OCC[C@H](O)CO)cc2)cc1 [Compound 1292]	< 0.008
CCOC(=O)Nc1ccc(C2c3[nH]c4ccc(Cl)cc4c3CCN2C(=O)Oc2ccc(Cl)cc2)cc1 (stereo not drawn) [Compound 467]	0.008 to 0.04
CCOC(COc1ccc(C2c3[nH]c4ccc(Cl)cc4c3CCN2C(=O)Oc2ccc(Cl)cc2)cc1)OCC (stereo not drawn) [Compound 1228]	< 0.008
COc1ccc(OC(=O)N2CCc3c([nH]c4ccc(Cl)cc34)[C@@H]2c2ccc(OCC[C@H](O)CO)cc2)cc1 [Compound 1300]	< 0.008
CC1(C)OCC(COc2ccc([C@H]3c4[nH]c5ccc(Cl)cc5c4CCN3C(=O)Oc3ccc(Cl)cc3)cc2)CO1 [Compound 1207]	< 0.008
O=C(Oc1ccc(F)cc1)N1CCc2c([nH]c3ccc(Cl)cc23)C1c1ccc(OCC[C@H](O)CO)cc1 (stereo partly drawn) [Compound 1179]	< 0.008
O=C(Oc1ccc(Cl)cc1)N1CCc2c([nH]c3ccc(Cl)cc23)C1c1ccc(O)cc1 (stereo not drawn) [Compound 577]	0.04 to 0.2
COc1ccc(C2c3[nH]c4ccc(Cl)cc4c3CCN2C(=O)Oc2ccc(Cl)cc2)c(F)c1 (stereo not drawn) [Compound 1269]	< 0.008
COCCOC(=O)Nc1ccc(C2c3[nH]c4ccc(Cl)cc4c3CCN2C(=O)Oc2ccc(Cl)cc2)cc1 (stereo not drawn) [Compound 470]	0.008 to 0.04
O=C(Oc1ccc(Cl)cc1)N1CCc2c([nH]c3ccc(Cl)cc23)C1c1ccc(I)cc1 (stereo not drawn) [Compound 428]	< 0.008
COC(=O)c1ccc(C2c3[nH]c4ccc(Cl)cc4c3CCN2C(=O)Oc2ccc(Cl)cc2)cc1 (stereo not drawn) [Compound 580]	< 0.008
COc1ccc(OC(=O)N2CCc3c([nH]c4ccc(Cl)cc34)C2c2ccc(OCC[C@H]3COC(C)(C)O3)cc2)cc1 (stereo partly drawn) [Compound 1171]	< 0.008
O=C(Oc1ccc(Cl)cc1)N1CCc2c([nH]c3ccc(Cl)cc23)C1c1ccc(N2CCCC2)cc1 (stereo not drawn) [Compound 984]	0.2 to 1
O=C(Oc1ccc(Cl)cc1)N1CCc2c([nH]c3ccc(Cl)cc23)[C@@H]1c1ccc(OCCC(O)Cn2ccnn2)cc1 (stereo partly drawn) [Compound 1281]	< 0.008
O=C(Oc1ccc(F)cc1)N1CCc2c([nH]c3ccc(Cl)cc23)C1c1ccc(OCCCCCCn2ccnc2)cc1 (stereo not drawn) [Compound 780]	< 0.008
O=C(Oc1ccc(Cl)cc1)N1CCc2c([nH]c3ccc(Cl)cc23)C1c1ccc(OCC(O)Cn2ccnc2)cc1 (stereo not drawn) [Compound 867]	0.008 to 0.04
O=C(Oc1ccc(F)cc1)N1CCc2c([nH]c3ccc(Cl)cc23)C1c1ccc(OCCCn2cncn2)cc1 (stereo not drawn) [Compound 892]	< 0.008
C=CCOc1ccc(C2c3[nH]c4ccc(Cl)cc4c3CCN2C(=O)Oc2ccc(OC)cc2)cc1 (stereo not drawn) [Compound 432]	< 0.008
O=C(Oc1ccc(Cl)cc1)N1CCc2c([nH]c3ccc(Cl)cc23)[C@@H]1c1ccc(OCCCn2ccnn2)cc1 [Compound 1068]	< 0.008
O=C(Oc1ccc(Cl)cc1)N1CCc2c([nH]c3ccc(Cl)cc23)C1c1ccc(OCCCCl)cc1 (stereo not drawn) [Compound 921]	< 0.008
CC(=O)NCC(CCOc1ccc([C@H]2c3[nH]c4ccc(Cl)cc4c3CCN2C(=O)Oc2ccc(Cl)cc2)cc1)OC(C)=O (stereo partly drawn) [Compound 1277]	< 0.008
COc1cc(C2c3[nH]c4ccc(Cl)cc4c3CCN2C(=O)Oc2ccc(C)cc2)ccc1OCCCn1cncn1 (stereo not drawn) [Compound 1152]	0.008 to 0.04
CC1(C)OC[C@H](COc2ccc([C@H]3c4[nH]c5ccc(Cl)cc5c4CCN3C(=O)Oc3ccc(Cl)cc3)cc2)O1 [Compound 1227]	< 0.008

same assay, conditions: Homo sapiens; HeLa cells, hypoxic conditions (1% O2), VEGF ELISA of conditioned media; read-out: ELISA EC50

Compound	EC50 [µM]
CC(=O)OCC1OC(n2cc(COc3ccc([C@H]4c5[nH]c6ccc(Cl)cc6c5CCN4C(=O)Oc4ccc(Cl)cc4)cc3)nn2)C(OC(C)=O)C(OC(C)=O)C1OC(C)=O (stereo partly drawn) [Compound 1675]	0.04 to 0.2
O=C(Oc1ccc(Cl)cc1)N1CCc2c([nH]c3ccc(Cl)cc23)C1c1ccc(OCC(O)CNS(=O)(=O)C2CC2)cc1 (stereo not drawn) [Compound 1567]	0.04 to 0.2
Cc1ccc(OC(=O)N2CCc3c([nH]c4ccc(Cl)cc34)[C@@H]2c2ccc(OCCC(O)CNC(=O)c3ccccn3)cc2)cc1 (stereo partly drawn) [Compound 1641]	< 0.008
CCOC(=O)NCC(O)COc1ccc(C2c3[nH]c4ccc(Cl)cc4c3CCN2C(=O)Oc2ccc(Cl)cc2)cc1 (stereo not drawn) [Compound 1562]	0.008 to 0.04
C[Si](C)(C)CCS(=O)(=O)N1CCC(Oc2ccc(C3c4[nH]c5ccc(Cl)cc5c4CCN3C(=O)Oc3ccc(F)cc3)cc2)CC1 (stereo not drawn) [Compound 1580]	< 0.008
O=C(Oc1ccc(Cl)cc1)N1CCc2c([nH]c3ccc(Cl)cc23)[C@@H]1c1ccc(Oc2ncccn2)cc1 [Compound 1570]	< 0.008
CC(CO)(CO)COc1ccc(C2c3[nH]c4ccc(Br)cc4c3CCN2C(=O)Oc2ccc(F)cc2)cc1 (stereo not drawn) [Compound 1352]	< 0.008
C#CCCCOc1ccc([C@H]2c3[nH]c4ccc(Cl)cc4c3CCN2C(=O)Oc2ccc(Cl)cc2)cc1 [Compound 1613]	< 0.008
COC(=O)NCC(O)CCOc1ccc([C@H]2c3[nH]c4ccc(Cl)cc4c3CCN2C(=O)Oc2ccc(Cl)cc2)cc1 (stereo partly drawn) [Compound 1635]	< 0.008
Cc1cnc(C)c(Oc2ccc([C@H]3c4[nH]c5ccc(Cl)cc5c4CCN3C(=O)Oc3ccc(Cl)cc3)cc2)n1 [Compound 1658]	< 0.008
O=C(Oc1ccc(Cl)cc1)N1CCc2c([nH]c3ccc(Cl)cc23)[C@@H]1c1ccc(OC2CCN(c3ncccn3)CC2)cc1 [Compound 1681]	< 0.008
